Assays:
MCF-7 cells = assay: Test 1: growth inhibition of MCF-7 human breast cancer cells; assay type: cell-based; conditions: Homo sapiens, MCF7, 72 hours culture with sample, read-out: GI50 (50% growth inhibition concentration)
Description: Used in the test were MCF-7 cells which were established from human breast cancer and were cultured routinely under the conditions of 37° C. and 5% CO2, in MEM medium supplemented with 10% fetal calf serum, 25 mM of HEPES and 0.1 mg/ml of kanamycin. The MCF-7 cells in a logarithmic growth phase were treated with trypsin/EDTA to prepare single cell suspension adjusted to 4.0×10^4 cells/ml in MEM medium (supplemented with 10% fetal calf serum, 25 mM of HEPES and 0.1 mg/ml of kanamycin). Test compounds were dissolved in DMSO and diluted with RPMI 1640 medium (supplemented with 10% fetal calf serum, 25 mM of HEPES and 0.1 mg/ml of kanamycin) to a concentration of 2.0×10^−4-2.0×10^−9 M.
The cell suspension was filled in a 96-wells microplate at a rate of 0.1 ml per well and was cultured for 24 hours so as to make the cells adhered to the microplate. Then, it was added with 0.1 ml of the sample solution and cultured at 37° C. for 72 hours in 5% CO2.
50% Growth inhibition concentrations (GI50 μM) were calculated from growth inhibitions at various sample concentrations.

Human colon cancer WiDr = assay: Test 2: human colon cancer WiDr subcutaneous tumor in nude mice; assay type: in vivo, mutant BALA/c nude mice; conditions: intraperitoneally 200 mg/kg, once a day, six times a week, for two weeks
Description: Human colon cancer WiDr was grown as subcutaneous tumor in mutant BALA/c nude mice. 2-mm-cube tumor fragments were transplanted subcutaneously into left flank of the nude mice. When the tumor reached logarithmic growth phase, mice were divided randomly into test groups consisting five mice per group. The samples prepared by dissolving test compounds in physiological saline solution or suspending them in 1% hydroxypropyl cellulose (HPC), using an agate mortar, were intraperitoneally administered at a rate of 200 mg/kg, once a day and six times a week in total, for two weeks. Major and minor axes of the tumor mass were measured on a daily basis to calculate tumor volume. The tumor volume at each measured day was divided by that at the start day of the sample administration to calculate relative tumor growth rate; and the relative tumor growth rate of the treated groups (T) and that of the control group (C) were used to calculate T/C (%).

SMILES | GI50 (MCF-7 cells) [µM] | melting point | judgment (T/C (%) of relative tumor growth rate, last day) (Human colon cancer WiDr)
C[C@@H]1OCCN(c2nc(N3CCOCC3)nc(-n3c(C(F)F)nc4ccccc43)n2)[C@H]1C (relative stereo) [compound 14, 2-(2-difluoromethylbenzimidazol-1-yl)-4-(trans-2,3-dimethylmorpholino)-6-morpholino-1,3,5-triazine] | 0.16 | 135 to 138 °C | + (Cases where T/C (%) of the last day was less than 50% and U-assay of Mann-Whitney revealed significant difference with one-sided risk rate of 1% were judged to be effective (+))
C[C@@H]1OCCN(c2cc(N3CCOCC3)nc(-n3c(N)nc4ccccc43)n2)[C@H]1C.Cl (relative stereo) [compound 31, 2-(2-aminobenzimidazol-1-yl)-4-(trans-2,3-dimethylmorpholino)-6-morpholinopyrimidine hydrochloride] | 0.24 | 141 to 145 °C | + (Cases where T/C (%) of the last day was less than 50% and U-assay of Mann-Whitney revealed significant difference with one-sided risk rate of 1% were judged to be effective (+))
CC1(C)CN(c2nc(N3CCOCC3)nc(-n3c(C(F)F)nc4ccc(N)cc43)n2)CCO1 [compound 32, 2-(6-amino-2-difluoromethylbenzimidazol-1-yl)-4-(2,2-dimethylmorpholino)-6-morpholino-1,3,5-triazine] | 0.18 | 226 to 227 °C (dec.) | + (Cases where T/C (%) of the last day was less than 50% and U-assay of Mann-Whitney revealed significant difference with one-sided risk rate of 1% were judged to be effective (+))
